The values below come from ChEMBL document CHEMBL1154011, “Discovery and structural analysis of Eph receptor tyrosine kinase inhibitors” (Bioorg Med Chem Lett, 2009).

Calls of active or inactive are those of the source. The calls are words filed in the database; no cut-off is given here.

Assay [1] concerns the target T1, Ephrin type-A receptor 6 (Homo sapiens) (UniProt Q9UF33).
T1 sequence (whole entry): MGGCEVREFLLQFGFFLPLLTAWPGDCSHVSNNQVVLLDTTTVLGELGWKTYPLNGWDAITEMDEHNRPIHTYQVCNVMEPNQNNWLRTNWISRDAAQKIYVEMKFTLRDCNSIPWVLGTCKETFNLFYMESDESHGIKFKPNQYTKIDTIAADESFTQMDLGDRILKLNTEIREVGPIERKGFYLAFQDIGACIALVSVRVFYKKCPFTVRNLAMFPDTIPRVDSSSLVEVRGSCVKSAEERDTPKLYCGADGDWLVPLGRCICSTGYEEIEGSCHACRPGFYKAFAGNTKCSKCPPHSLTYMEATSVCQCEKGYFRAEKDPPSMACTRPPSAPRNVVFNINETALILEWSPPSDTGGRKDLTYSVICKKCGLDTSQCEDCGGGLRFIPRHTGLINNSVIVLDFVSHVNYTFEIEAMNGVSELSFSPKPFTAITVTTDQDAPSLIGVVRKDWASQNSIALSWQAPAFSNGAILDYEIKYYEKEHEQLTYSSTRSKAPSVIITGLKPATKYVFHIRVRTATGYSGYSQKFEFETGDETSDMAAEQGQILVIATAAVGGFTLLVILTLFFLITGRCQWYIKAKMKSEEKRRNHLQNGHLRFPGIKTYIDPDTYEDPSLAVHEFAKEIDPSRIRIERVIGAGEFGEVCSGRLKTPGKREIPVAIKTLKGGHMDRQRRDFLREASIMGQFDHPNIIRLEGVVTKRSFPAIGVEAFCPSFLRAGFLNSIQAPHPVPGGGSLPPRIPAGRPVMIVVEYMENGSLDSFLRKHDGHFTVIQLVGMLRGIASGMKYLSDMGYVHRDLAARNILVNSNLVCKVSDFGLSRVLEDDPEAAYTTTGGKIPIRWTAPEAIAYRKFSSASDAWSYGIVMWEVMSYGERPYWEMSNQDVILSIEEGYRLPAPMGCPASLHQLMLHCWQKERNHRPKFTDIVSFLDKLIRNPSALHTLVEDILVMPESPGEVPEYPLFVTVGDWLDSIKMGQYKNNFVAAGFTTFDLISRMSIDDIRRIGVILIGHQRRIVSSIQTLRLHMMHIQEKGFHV
In words: Inhibition of EphA6 at 10 uM.

The target of assay [2] is T2, Ephrin type-B receptor 1 (Homo sapiens) (UniProt P54762).
T2 sequence (whole entry): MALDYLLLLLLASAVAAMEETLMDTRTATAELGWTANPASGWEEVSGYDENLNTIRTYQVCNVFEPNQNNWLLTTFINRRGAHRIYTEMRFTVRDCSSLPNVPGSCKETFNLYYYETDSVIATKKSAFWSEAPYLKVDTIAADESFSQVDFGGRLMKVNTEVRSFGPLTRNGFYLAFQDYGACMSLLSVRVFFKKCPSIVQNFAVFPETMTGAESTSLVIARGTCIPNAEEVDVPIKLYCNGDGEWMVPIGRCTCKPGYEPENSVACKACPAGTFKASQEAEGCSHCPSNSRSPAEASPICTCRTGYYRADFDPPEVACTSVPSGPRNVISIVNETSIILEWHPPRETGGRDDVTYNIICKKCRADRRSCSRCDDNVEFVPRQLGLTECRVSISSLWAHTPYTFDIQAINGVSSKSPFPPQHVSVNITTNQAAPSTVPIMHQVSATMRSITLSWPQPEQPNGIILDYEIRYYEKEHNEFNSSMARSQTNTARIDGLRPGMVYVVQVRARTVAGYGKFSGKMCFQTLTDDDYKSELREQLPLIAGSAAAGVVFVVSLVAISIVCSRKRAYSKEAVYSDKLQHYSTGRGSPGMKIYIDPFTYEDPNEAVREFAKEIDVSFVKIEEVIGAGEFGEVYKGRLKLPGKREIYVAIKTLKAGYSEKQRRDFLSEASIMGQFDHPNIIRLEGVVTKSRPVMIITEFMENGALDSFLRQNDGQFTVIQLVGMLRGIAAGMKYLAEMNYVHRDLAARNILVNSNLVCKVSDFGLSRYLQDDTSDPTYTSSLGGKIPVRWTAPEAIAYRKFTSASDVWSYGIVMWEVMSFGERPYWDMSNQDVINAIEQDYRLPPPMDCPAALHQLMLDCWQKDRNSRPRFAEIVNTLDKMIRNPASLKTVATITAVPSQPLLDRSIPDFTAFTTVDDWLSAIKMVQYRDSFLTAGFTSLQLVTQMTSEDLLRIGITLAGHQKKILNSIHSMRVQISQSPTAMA
In words: Inhibition of EphB1 at 10 uM.

For assay [3], the target named is Ephrin type-A receptor 7 (Homo sapiens) (UniProt Q15375). Nature of the assay: Inhibition of EphA7 at 10 uM.
Chain of Ephrin type-A receptor 7 (Homo sapiens) (Q15375 28-998 limits assumed): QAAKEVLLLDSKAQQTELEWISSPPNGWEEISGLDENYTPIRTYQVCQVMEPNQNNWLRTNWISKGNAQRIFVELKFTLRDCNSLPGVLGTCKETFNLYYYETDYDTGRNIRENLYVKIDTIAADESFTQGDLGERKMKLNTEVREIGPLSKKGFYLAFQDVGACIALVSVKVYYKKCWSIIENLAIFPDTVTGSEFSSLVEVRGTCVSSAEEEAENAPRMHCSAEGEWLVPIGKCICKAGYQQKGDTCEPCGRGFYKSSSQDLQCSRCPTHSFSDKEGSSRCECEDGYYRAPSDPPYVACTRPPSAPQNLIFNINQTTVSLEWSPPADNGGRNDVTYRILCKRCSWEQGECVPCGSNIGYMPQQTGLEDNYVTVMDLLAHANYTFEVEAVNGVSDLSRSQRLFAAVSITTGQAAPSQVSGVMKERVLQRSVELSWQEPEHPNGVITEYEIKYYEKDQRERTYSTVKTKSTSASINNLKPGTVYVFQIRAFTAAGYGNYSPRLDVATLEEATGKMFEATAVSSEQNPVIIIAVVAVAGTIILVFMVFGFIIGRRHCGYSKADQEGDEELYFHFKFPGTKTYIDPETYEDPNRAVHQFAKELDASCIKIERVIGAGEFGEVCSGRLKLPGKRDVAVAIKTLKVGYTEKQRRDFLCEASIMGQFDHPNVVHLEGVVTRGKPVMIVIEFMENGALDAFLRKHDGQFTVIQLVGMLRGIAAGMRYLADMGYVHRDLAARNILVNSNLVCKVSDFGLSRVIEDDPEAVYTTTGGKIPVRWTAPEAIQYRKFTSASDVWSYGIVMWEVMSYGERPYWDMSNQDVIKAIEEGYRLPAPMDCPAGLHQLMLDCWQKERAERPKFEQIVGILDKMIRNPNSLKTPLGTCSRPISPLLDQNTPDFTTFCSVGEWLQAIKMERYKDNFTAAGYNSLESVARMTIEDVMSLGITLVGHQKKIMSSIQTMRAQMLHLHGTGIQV
Assay [4] concerns the target Serine/threonine-protein kinase B-raf (Homo sapiens) (UniProt P15056). Nature of the assay: Inhibition of Tel fused b-Raf expressed in mouse BA/F3 cells. Format: cell-based. Conditions: BaF3.
In assay [5] the target is Ephrin type-B receptor 3 (Homo sapiens) (UniProt P54753). In words: Inhibition of EphB3 at 10 uM.
Assay [6] concerns the target Epithelial discoidin domain-containing receptor 1 (Homo sapiens) (UniProt Q08345). Nature of the assay: Inhibition of DDR1 at 10 uM.
For assay [7], the target named is Ephrin type-B receptor 2 (Homo sapiens) (UniProt P29323). In words: Inhibition of EphB2 at 10 uM.
Assay [8] deals with Platelet-derived growth factor receptor alpha (Homo sapiens) (UniProt P16234). Nature of the assay: Inhibition of PDGFRalpha at 10 uM.
The next assay deals with BaF3. In words: Inhibition of PDGFR expressed in mouse BA/F3 cells. It counts as cell-based.
Assay [9] deals with Tyrosine-protein kinase Lck (Homo sapiens) (UniProt P06239). Nature of the assay: Inhibition of Lck at 10 uM.
For assay [10], the target named is Mast/stem cell growth factor receptor Kit (Homo sapiens) (UniProt P10721). Nature of the assay: Inhibition of Kit at 10 uM.
Chain of Mast/stem cell growth factor receptor Kit (Homo sapiens) (P10721 whole entry, the tested form may be a part): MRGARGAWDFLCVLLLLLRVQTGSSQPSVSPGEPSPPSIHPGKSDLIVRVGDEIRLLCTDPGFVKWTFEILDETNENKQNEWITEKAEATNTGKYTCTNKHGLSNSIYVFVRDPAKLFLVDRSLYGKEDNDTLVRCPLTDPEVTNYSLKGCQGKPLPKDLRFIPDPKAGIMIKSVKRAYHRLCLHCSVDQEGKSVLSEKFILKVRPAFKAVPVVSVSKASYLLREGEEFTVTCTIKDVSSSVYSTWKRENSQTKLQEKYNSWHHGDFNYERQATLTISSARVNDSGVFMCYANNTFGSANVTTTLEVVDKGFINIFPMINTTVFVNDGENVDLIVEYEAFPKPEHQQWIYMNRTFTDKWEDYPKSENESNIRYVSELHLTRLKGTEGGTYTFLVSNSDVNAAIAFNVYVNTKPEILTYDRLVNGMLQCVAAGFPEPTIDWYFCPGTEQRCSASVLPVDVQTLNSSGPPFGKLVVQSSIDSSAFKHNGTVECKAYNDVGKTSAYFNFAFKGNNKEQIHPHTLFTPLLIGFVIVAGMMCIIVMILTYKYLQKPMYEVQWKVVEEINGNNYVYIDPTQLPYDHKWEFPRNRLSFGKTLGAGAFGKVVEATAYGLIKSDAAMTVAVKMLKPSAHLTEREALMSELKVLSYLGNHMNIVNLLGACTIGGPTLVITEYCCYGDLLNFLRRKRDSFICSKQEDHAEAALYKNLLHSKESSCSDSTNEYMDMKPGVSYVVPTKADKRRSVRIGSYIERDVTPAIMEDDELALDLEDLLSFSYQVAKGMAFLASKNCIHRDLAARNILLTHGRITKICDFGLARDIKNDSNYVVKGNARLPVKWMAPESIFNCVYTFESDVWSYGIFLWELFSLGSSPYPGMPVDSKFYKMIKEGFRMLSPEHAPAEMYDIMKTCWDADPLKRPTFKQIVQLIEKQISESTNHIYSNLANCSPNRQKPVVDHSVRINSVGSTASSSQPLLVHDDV
Assay [11] addresses Ephrin type-A receptor 2 (Homo sapiens) (UniProt P29317). In words: Inhibition of EphA2 at 10 uM.
The target in assay [12] is Mast/stem cell growth factor receptor Kit (Homo sapiens) (UniProt P10721). Nature of the assay: Inhibition of c-kit expressed in mouse BA/F3 cells. It counts as cell-based. As to conditions: BaF3.
Assay [13] has as its target Bcr/Abl fusion protein (Homo sapiens) (UniProt P00519+P11274). In words: Inhibition of Bcr-Abl expressed in mouse BA/F3 cells. Format: cell-based. Conditions: BaF3.
The target of assay [14] is Serine/threonine-protein kinase B-raf (Homo sapiens) (UniProt P15056). Nature of the assay: Inhibition of b-Raf at 100 uM.
Chain of Serine/threonine-protein kinase B-raf (Homo sapiens) (P15056 whole entry, the tested form may be a part): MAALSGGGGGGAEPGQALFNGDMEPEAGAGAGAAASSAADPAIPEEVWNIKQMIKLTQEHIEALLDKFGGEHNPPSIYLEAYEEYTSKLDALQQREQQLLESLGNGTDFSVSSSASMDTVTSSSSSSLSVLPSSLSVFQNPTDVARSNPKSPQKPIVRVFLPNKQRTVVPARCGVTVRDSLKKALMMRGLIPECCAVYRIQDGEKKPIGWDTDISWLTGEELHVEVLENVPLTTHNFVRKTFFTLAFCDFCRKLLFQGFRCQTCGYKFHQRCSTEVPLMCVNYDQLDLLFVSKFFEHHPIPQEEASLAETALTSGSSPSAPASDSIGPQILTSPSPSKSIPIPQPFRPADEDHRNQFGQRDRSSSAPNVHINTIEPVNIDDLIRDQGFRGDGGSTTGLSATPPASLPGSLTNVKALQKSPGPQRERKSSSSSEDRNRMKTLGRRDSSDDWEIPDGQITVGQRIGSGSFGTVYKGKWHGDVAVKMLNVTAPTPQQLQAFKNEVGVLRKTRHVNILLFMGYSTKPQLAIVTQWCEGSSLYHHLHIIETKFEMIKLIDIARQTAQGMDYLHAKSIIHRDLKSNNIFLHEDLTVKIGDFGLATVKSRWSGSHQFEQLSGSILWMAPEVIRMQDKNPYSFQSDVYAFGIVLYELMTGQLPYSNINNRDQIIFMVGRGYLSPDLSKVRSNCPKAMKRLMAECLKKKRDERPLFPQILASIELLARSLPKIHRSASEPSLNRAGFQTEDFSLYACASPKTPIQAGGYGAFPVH
Assay [15] deals with Tyrosine-protein kinase FRK (Homo sapiens) (UniProt P42685). In words: Inhibition of Frk at 10 uM.
In assay [16] the target is Tyrosine-protein kinase ABL1 (Homo sapiens) (UniProt P00519). Nature of the assay: Inhibition of Abl expressed in mouse BA/F3 cells. As to conditions: BaF3. It counts as cell-based.
Chain of Tyrosine-protein kinase ABL1 (Homo sapiens) (P00519 whole entry): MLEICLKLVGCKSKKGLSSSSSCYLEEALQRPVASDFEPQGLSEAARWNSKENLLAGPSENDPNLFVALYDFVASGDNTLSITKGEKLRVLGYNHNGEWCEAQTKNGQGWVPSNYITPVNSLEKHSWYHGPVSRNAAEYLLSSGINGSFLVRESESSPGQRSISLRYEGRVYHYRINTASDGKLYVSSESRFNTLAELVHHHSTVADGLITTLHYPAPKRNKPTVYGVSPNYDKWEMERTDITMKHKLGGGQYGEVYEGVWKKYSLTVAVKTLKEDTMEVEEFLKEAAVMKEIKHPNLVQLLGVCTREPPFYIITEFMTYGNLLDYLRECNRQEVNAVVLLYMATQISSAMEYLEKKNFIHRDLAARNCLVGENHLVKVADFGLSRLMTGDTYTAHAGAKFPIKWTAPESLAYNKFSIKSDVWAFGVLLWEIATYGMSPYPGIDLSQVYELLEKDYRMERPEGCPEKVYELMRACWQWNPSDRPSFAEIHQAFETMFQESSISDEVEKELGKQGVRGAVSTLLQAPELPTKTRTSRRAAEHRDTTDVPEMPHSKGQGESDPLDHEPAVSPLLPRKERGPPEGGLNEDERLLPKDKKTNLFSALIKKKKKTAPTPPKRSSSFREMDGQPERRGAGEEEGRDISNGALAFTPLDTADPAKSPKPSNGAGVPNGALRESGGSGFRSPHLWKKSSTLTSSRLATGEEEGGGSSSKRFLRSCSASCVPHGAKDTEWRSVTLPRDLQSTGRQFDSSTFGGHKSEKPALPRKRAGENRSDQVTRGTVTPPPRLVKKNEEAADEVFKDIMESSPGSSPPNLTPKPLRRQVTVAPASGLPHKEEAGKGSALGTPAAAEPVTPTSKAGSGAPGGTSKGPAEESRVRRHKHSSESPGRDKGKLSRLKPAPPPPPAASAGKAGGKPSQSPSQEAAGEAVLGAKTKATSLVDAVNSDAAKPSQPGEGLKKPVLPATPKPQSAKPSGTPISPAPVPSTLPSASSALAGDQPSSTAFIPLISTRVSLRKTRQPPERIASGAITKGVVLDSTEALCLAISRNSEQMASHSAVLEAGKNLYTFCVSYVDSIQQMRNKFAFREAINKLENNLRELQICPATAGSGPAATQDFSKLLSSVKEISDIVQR
Assay [17] has as its target Ephrin type-A receptor 8 (Homo sapiens) (UniProt P29322). In words: Inhibition of EphA8 at 10 uM.
In assay [18] the target is Mitogen-activated protein kinase 11 (Homo sapiens) (UniProt Q15759). Nature of the assay: Inhibition of p38beta at 10 uM.
In assay [19] the target is Macrophage colony-stimulating factor 1 receptor (Homo sapiens) (UniProt P07333). In words: Inhibition of CSF1R at 10 uM.
In assay [20] the target is Mitogen-activated protein kinase 14 (Homo sapiens) (UniProt Q16539). In words: Inhibition of p38alpha at 10 uM.
The target of assay [21] is Ephrin type-A receptor 5 (Homo sapiens) (UniProt P54756). In words: Inhibition of EphA5 at 10 uM.
For assay [22], the target named is Platelet-derived growth factor receptor beta (Homo sapiens) (UniProt P09619). Nature of the assay: Inhibition of PDGFRbeta at 10 uM.
Assay [23] addresses Discoidin domain-containing receptor 2 (Homo sapiens) (UniProt Q16832). In words: Inhibition of DDR2 at 10 uM.
Assay [24] deals with RAF proto-oncogene serine/threonine-protein kinase (Homo sapiens) (UniProt P04049). Nature of the assay: Inhibition of RAF1 at 10 uM.
The target of assay [25] is Fibroblast growth factor receptor 2 (Homo sapiens) (UniProt P21802). In words: Inhibition of FGFR2 expressed in mouse BA/F3 cells. As to conditions: BaF3. Format: cell-based.
Assay [26] has as its target Fibroblast growth factor receptor 3 (Homo sapiens) (UniProt P22607). Nature of the assay: Inhibition of FGFR3 expressed in mouse BA/F3 cells. Format: cell-based. As to conditions: BaF3.
For assay [27], the target named is Fibroblast growth factor receptor 4 (Homo sapiens) (UniProt P22455). In words: Inhibition of FGFR4 expressed in mouse BA/F3 cells. Conditions: BaF3. Format: cell-based.

Chain of Epithelial discoidin domain-containing receptor 1 (Homo sapiens) (Q08345 whole entry, the tested form may be a part): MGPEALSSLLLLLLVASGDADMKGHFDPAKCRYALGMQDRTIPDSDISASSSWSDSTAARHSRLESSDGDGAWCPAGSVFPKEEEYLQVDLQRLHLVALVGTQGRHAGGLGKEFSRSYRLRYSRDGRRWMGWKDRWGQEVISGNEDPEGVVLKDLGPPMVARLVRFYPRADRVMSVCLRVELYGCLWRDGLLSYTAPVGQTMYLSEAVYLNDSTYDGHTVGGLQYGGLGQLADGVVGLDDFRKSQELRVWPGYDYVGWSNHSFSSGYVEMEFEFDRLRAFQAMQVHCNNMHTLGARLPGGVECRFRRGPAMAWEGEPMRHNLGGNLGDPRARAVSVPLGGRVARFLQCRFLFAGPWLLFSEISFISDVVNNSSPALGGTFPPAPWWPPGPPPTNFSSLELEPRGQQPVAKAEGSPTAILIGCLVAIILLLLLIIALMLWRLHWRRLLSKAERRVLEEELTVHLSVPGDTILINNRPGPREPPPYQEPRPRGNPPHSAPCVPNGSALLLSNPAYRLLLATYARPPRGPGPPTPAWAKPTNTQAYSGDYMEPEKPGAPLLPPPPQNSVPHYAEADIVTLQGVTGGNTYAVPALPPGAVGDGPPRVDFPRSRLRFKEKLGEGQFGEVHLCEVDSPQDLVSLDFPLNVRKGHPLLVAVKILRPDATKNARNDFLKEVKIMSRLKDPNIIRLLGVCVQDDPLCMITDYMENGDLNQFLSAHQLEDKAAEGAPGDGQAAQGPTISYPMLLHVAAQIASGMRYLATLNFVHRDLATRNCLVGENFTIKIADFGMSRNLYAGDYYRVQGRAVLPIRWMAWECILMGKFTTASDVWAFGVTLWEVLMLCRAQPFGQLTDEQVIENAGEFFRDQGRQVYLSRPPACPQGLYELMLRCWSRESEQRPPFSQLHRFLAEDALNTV

As to `Cc1cn(-c2cc(NC(=O)c3ccc(C)c(NC(=O)c4ccno4)c3)cc(C(F)(F)F)c2)cn1`, the inhibition entry in assay [1], in assay [2], in [3] and in [4] was “inactive” in each case.

Take `CCN1CCN(Cc2ccc(NC(=O)c3ccc(C)c(NC(=O)c4cncc(-c5cccs5)c4)c3)cc2C(F)(F)F)CC1`: the inhibition entry (in assay [5]; in [6]; in assay [7]; in [8]; with BaF3; in [9]) was “Active” throughout. Also, the inhibition result in assay [10], in assay [11], in assay [12], in assay [13], in assay [2] and in assay [14] was “Active” throughout. Besides, the inhibition result in assay [15], in assay [16], in [17], in assay [18], in [19] and in [20] was “Active” in each case. In addition, the inhibition result in assay [21], in [22], in assay [23] and in assay [24] was “Active” in each case.

Turning to `Cc1ccc(C(=O)Nc2cccc(C(F)(F)F)c2)cc1Nc1ccc2occc(=O)c2c1`, the inhibition entry in assay [1], in [2] and in [3] was “inactive” throughout. Moreover, the inhibition entry (with BaF3; in assay [12]; in assay [13]; in assay [16]) was “Active” throughout.

Consider `Cc1ccc(C(=O)Nc2cccc(C(F)(F)F)c2)cc1Nc1cncc(C(N)=O)c1`, for which the inhibition entry in [1], in [2], in assay [3] and in assay [4] was “inactive” each time.

Consider `Cc1ccc(C(=O)Nc2cccc(C(F)(F)F)c2)cc1Nc1[nH]cnc2ncnc1-2`, for which the inhibition entry (in the assay on BaF3; in assay [12]; in assay [25]; in assay [16]; in [26]; in assay [27]) was “Active” in each case.
